In brackets after ≈: the same amount, converted by molar mass. Read-outs that look alike come from different tables or passages of the source.
Legend:
[1] = tested on: Trichophyton mentagrophytes; test: In vitro susceptibility testing (MIC) by macro broth dilution method (CLSI M-38); format: cell-based; details: for MIC: Trichophyton mentagrophytes
Method: (§1) In vitro susceptibility testing (Minimum Inhibitory Concentration) by macro broth dilution method—(CLSI method-M-38) was carried out as described in literature.
(§2) Reference method for broth dilution antifungal susceptibility testing of yeasts-Approved standard. NCCLS document M27-A. National Committee for Clinical Laboratory Standards, Wayne, Pa.;
(§3) Reference method for broth dilution antifungal susceptibility testing of filamentous fungi-Approved standard. NCCLS document M38-A. National Committee for Clinical Laboratory Standards, Wayne, Pa.
(§4) Candida albicans, Trichophyton mentagrophytes and Micropsporum gypseum were used as test organisms.
(§5) RPMI 1640 (Sigma) with L-glutamine but without sodium bicarbonate and buffered at pH 7.0 with 3-(N-morpholino) propanesulfonic acid monosodium salt (MOPS), was the medium used for broth macro dilution susceptibility testing.
(§6) The extract of example 1, compound 1 and ketoconazole as standard.
(§7) The samples were prepared in methanol at 100 times the final concentration, followed by further dilutions (1:10) in RPMI 1640 medium to yield ten times the final strength required for the test. Purified component was also diluted in the same manner in methanol alone. Aliquots (0.1 ml) of each extract were dispensed into tubes. The final concentrations of extract ranged from 100-10 μg/ml.
(§8) The cultures were grown on PDA agar slants at 28° C. for 7 days. The growth was covered with sterile saline and scraped to get a growth suspension. The resulting mixture of conidia or sporangiospores and hypal fragments was transferred to a sterile test tube. The heavy particles were allowed to settle and upper homogenous suspension was transferred to another tube. These suspensions were adjusted to an optical density that ranged from 0.09 to 0.11 (80 to 82% transmittance). These stock suspensions were further diluted 1:100 with medium to obtain test inoculum (0.4×10^4 to 5×10^4 cfu/ml).
(§9) Finally the tubes were inoculated with 0.1 ml of sample dilutions and 0.9 ml of the above-prepared inoculum. […] Growth control tube received only diluent without sample. […]

Micropsporum gypseum = test: as above; format: cell-based, Microsporum gypseum; details: for MIC: Nannizzia gypsea
Method: as §1, §2, §3, §4, §5, §6, §7, §8, §9

Candida albicans = test: as above; format: cell-based
Method: as §1, §2, §3, §4, §5, §6
as §7, with “μg/ml. […]” for “μg/ml.”

[2] = tested on: Trichophyton mentagrophytes; test: Agar well diffusion method, zone of inhibition; format: cell-based; details: preparative HPLC fractions; concentration not given
Method: The given extracts were tested against a panel of microorganisms, including Candida albicans 10231, Microsporum gypseum and Trichophyton mentagrophytes.
The strains were cultured overnight at 30° C. in Sabouraud dextrose agar. Colonies from subcultures were suspended in saline and vortexed to give a transmittance of 75-80% at 530 nm (T530 nm≈10^8 cfu/ml). Predecided volume of inoculum was mixed with molten agar at 40° C. and poured into sterile petri plates. Plates were allowed to set and solidify. Then wells (6 mm in diameter) were cut from the agar and 0.05 ml of extract solution was delivered into them. After incubation for 48 hours, at 28° C., all plates were examined for any zones of growth inhibition, and the diameters of these zones were measured in millimeters.
The stock solutions of 10 mg/ml of extracts of example 1 was prepared by suspending extract in methanol and sonicating for 10 seconds. Further dilutions were made to get a concentration range of 5, 2 and 1 mg/ml.
Preparative TLC samples were analyzed for the activity by Agar well diffusion method as described in example 2.
All preparative HPLC fractions were analyzed for activity by Agar well diffusion method as described in example 2.

Row | Structure (SMILES) | MIC ([1]; macro broth dilution, RPMI 1640 pH 7.0, 28° C. for 48 hours, 100% growth inhibition, read-out: MIC values, Trichophyton mentagrophytes) [µg/mL] | MIC (Micropsporum gypseum; macro broth dilution, RPMI 1640 pH 7.0, 28° C. for 48 hours, 100% growth inhibition, read-out: MIC values, Microsporum gypseum) [µg/mL] | MIC (Candida albicans; macro broth dilution, RPMI 1640 pH 7.0, 37° C. for 24 hours, 100% growth inhibition, read-out: MIC values, Candida ablicans) [µg/mL] | zone of inhibition (tested against Trichophyton mentagrophytes culture) [2] [mm] | MIC ([1]; 48 h, pH 7, read-out: MIC values, Trichophyton mentagrophytes) [µg/mL] | MIC against dermatophytes versus ketoconazole (conclusion of Table 3), Trichophyton mentagrophytes ([1]; macro broth dilution) | MIC (Micropsporum gypseum; 48 h, pH 7, read-out: MIC values, Microsporum gypseum) [µg/mL] | MIC against dermatophytes versus ketoconazole (conclusion of Table 3), Microsporum gypseum (Micropsporum gypseum; macro broth dilution) | MIC (Candida albicans; 24 h, pH 7, read-out: MIC values, Candida ablicans) [µg/mL]
1 | CC(=O)N1CCN(c2ccc(OCC3COC(Cn4ccnc4)(c4ccc(Cl)cc4Cl)O3)cc2)CC1 (stereo not drawn) [Ketoconazole, ketoconazole, reference compound] | 4 (≈ 7.53 µM) | 4 (≈ 7.53 µM) | 5 (≈ 9.41 µM) |  |  |  |  |  | 
2 | COc1cc2[nH]c3ccccc3c2cc1C [Compound 1, 2-methoxy-3-methyl-9H-carbazole] |  |  |  | > 25 | 6 (≈ 28.4 µM) | Conclusion: MIC of compound 1 against dermatophytes is comparable with ketoconazole. | 4 (≈ 18.9 µM) | Conclusion: MIC of compound 1 against dermatophytes is comparable with ketoconazole. | 30 (≈ 142 µM)

Source: patent US20090104297A1, “HERBAL COMPOSITION FOR TREATMENT OF INFECTIONS CAUSED BY DERMATOPHYTES” (Piramal Life Sciences Limited, priority 2006, published 2009)
